Assay results taken from patent US20260158046A1, “TREATMENT OF NEURODEGENERATIVE DISORDERS WITH DOXYCYCLINE ALONE OR IN COMBINATION WITH LEVODOPA” (Biohaven Therapeutics Ltd., priority 2023, published 2026).

Experiments:
Format in all cases: in vivo, human
[1] = Case report, Patient A: tolerability of doxycycline; details: after two additional months on doxycycline
Description: (§1) Patient A is a person diagnosed with PD approximately one and a half years earlier and treated with levodopa. […] The patient also experienced intermittent irritable bowel disorder symptoms.

seborrheic dermatitis = assay: Case report, Patient A: seborrheic dermatitis under doxycycline
Description: as §1

PD tremor = assay: Case report, Patient A: PD tremor under doxycycline added to levodopa; details: prior to initiation of doxycycline
Description: as §1

C[C@H]1c2cccc(O)c2C(=O)C2=C(O)[C@]3(O)C(=O)C(C(N)=O)=C(O)[C@@H](N(C)C)[C@@H]3[C@@H](O)[C@@H]21 [doxycycline, Doxycycline]
adverse event leading to stop of treatment [1]: nausea | time to resolution of seborrheic dermatitis (seborrheic dermatitis; PD patient on levodopa, doxycycline 100 mg tablet once a day, first course): ≤ 3 weeks | time to recurrence of seborrheic dermatitis after discontinuation (seborrheic dermatitis; doxycycline discontinued after approximately 8 weeks (first de-challenge)): ≤ 2 weeks

N[C@@H](Cc1ccc(O)c(O)c1)C(=O)O [levodopa, Levodopa]
interval between required levodopa dose increases (worsening PD, most notably tremor) (PD tremor): ~3 months
